Results taken from patent publication US20180263996A1, “ARYL SULTAM DERIVATIVES AS RORc MODULATORS” (Genentech, Inc., priority 2015, published 2018).

Biological target: T1, RORc (Homo sapiens, UniProt P51449)
T1 construct: host or cells: E. coli
T1 sequence (P51449 269-508 limits assumed): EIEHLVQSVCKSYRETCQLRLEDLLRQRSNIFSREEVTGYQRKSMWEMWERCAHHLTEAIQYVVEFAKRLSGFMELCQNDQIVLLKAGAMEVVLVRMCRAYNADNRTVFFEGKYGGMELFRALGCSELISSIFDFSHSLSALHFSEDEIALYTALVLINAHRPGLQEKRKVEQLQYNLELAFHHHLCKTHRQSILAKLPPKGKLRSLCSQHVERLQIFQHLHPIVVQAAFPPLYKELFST
Assay: In Vitro RORc Ligand Binding Assay
Conditions: IC50 values for RORc
Description: This assay was used to determine a compound's potency in inhibiting activity of RORc by determining, Kiapp, IC50, or percent inhibition values.
On day of the assay, 100 uL of 0.05% CHAPS (in deionized H2O) was added to all wells of the GFB Unifilter plate and allowed soak for 1 h. A wash buffer of 50 mM HEPES (pH 7.4), 150 mM NaCl, and 5 mM MgCl2 was prepared to wash the filter plate. To prepare an assay buffer, BSA was added to the wash buffer to reach 0.01% and DTT was added to reach 1 mM.
The 20× compound stocks were diluted in DMSO with Assay Buffer 4-fold to reach 5× the final test concentration in 25% DMSO (10 uL compound+30 uL Assay Buffer). Solutions were mixed by aspiration several times with a pipette set on 50 uL volume.
For two point screening, 10 mM stock compound solutions were diluted in DMSO to obtain 200 uM (20× the high test concentration) and then diluted 10-fold further to reach 20 uM (20× the low test concentration). The 20× stocks were diluted 4-fold with Assay Buffer (10 uL compound+30 uL Assay Buffer) to reach 5× the test concentrations (50 uM and 5 uM) and 10 uL were added to two assay plates for the duplicate wells. With each concentration tested on 2 plates, each set of 80 compounds used 4 assay plates (1 uM and 10 uM, with n=2).
For 25-hydroxycholesterol in 25% DMSO/75% Assay Buffer; 10 uL per well was used for NSB samples. Wells for Total Binding and No Receptor sample determination contained 10 uL of 25% DMSO/75% Assay Buffer per well.
Add 20 uL to all wells to reach 6 nM final concentration in the assay.
Stock receptor solution was diluted in assay buffer to obtain 1.5 ug/mL in Assay Buffer. 20 uL was added to all wells. For No Receptor samples, 20 uL Assay Buffer was substituted for receptor solution.
Assay plates were 96-well polypropylene V-bottom plates. […] 10 uL of 25% DMSO/75% Assay Buffer was added to Total Binding or No Receptor wells. 10 uL of 5 uM 25-hydroxycholesterol in 25% DMSO/75% Assay Buffer was added to NSB wells. […] 20 uL of 1.5 ug/mL RORc receptor was added to wells (or 40 uL Assay Buffer to No R wells). Following addition to the wells, the plates were incubated 3 h at 25° C.
Using a Packard Filtermate Harvester, the filter plate were washed 4 times following transfer of the incubated samples. Plates were dry-filtered completely (2 h at 50° C. or overnight at room temperature). 50 uL Microscint 0 was added to all wells and read on Topcount protocol Inverted.
Final concentrations were as follows: 50 mM HEPES buffer (pH 7.4); 150 mM NaCl; 1 mM DTT; 5 mM MgCl2; 0.01% BSA; 5% DMSO; 0.6 ug/mL RORc receptor; 6 nM 25-[^3H]hydroxycholesterol. For NSB wells, 1 uM 25-hydroxycholesterol was also present.

Compound	IC50 [µM]
CO[C@H]1C[C@@H](NC(=O)C2(c3ccc(CN4[C@@H](C)CC[C@H](c5ccccc5)S4(=O)=O)c(F)c3)CCOCC2)C1 [Compound 32, 4-[3-fluoro-4-[[(3S,6R)-3-methyl-1,1-dioxo-6-phenyl-thiazinan-2-yl]methyl]phenyl]-N-(3-methoxycyclobutyl)tetrahydropyran-4-carboxamide]	0.0535
C[C@H]1CC[C@H](c2ccccc2)S(=O)(=O)N1Cc1ccc(C2(COCC3COC3)CCOCC2)cc1F [Compound 3, (3S,6R)-2-[[2-fluoro-4-[4-(oxetan-3-ylmethoxymethyl)tetrahydropyran-4-yl]phenyl]methyl]-3-methyl-6-phenyl-thiazinane 1,1-dioxide]	0.0445
Cc1nocc1C(=O)NC(C)c1cc(F)c(CN2[C@@H](C)CC[C@H](c3ccccc3)S2(=O)=O)cc1F (stereo in doubt) [Compound 60, N-[1-[2,5-difluoro-4-[[(3S,6R)-3-methyl-1,1-dioxo-6-phenyl-thiazinan-2-yl]methyl]phenyl]ethyl]-3-methyl-isoxazole-4-carboxamide]	0.0545
C=CCOC1(c2cc(F)c(CN3[C@@H](C)CC[C@H](c4ccccc4)S3(=O)=O)cc2F)CC2(COC2)C1 [Compound 14, (3S,6R)-2-[[4-(6-allyloxy-2-oxaspiro[3.3]heptan-6-yl)-2,5-difluoro-phenyl]methyl]-3-methyl-6-phenyl-thiazinane 1,1-dioxide]	0.0022
CC(NC(=O)c1ccno1)c1cc(F)c(CN2[C@@H](C)CC[C@H](c3ccccc3)S2(=O)=O)cc1F (stereo in doubt) [Compound 55, N-[1-[2,5-difluoro-4-[[(3S,6R)-3-methyl-1,1-dioxo-6-phenyl-thiazinan-2-yl]methyl]phenyl]ethyl]isoxazole-5-carboxamide]	0.011
C[C@H]1CC[C@H](c2ccccc2)S(=O)(=O)N1Cc1cc(F)c([C@H](CCC#N)C(N)=O)cc1F [Compound 16, (2S)-4-cyano-2-[2,5-difluoro-4-[[(3S,6R)-3-methyl-1,1-dioxo-6-phenyl-thiazinan-2-yl]methyl]phenyl]butanamide]	0.0568
C[C@H]1CC[C@H](c2ccccc2)S(=O)(=O)N1Cc1cc(F)c(C2(NCC(N)=O)CC(F)(F)C2)cc1F [Compound 21, 2-[[1-[2,5-difluoro-4-[[(3S,6R)-3-methyl-1,1-dioxo-6-phenyl-thiazinan-2-yl]methyl]phenyl]-3,3-difluoro-cyclobutyl]amino]acetamide]	0.0015
Cc1cc(C(=O)NC(C)c2cc(F)c(CN3[C@@H](C)CC[C@H](c4ccccc4)S3(=O)=O)cc2F)on1 (stereo in doubt) [Compound 67, N-[1-[2,5-difluoro-4-[[(3S,6R)-3-methyl-1,1-dioxo-6-phenyl-thiazinan-2-yl]methyl]phenyl]ethyl]-3-methyl-isoxazole-5-carboxamide]	0.0065
CC(NCc1cnoc1)c1cc(F)c(CN2[C@@H](C)CC[C@H](c3ccccc3)S2(=O)=O)cc1F (stereo partly drawn) [Compound 50, 1-[2,5-difluoro-4-[[(3S,6R)-3-methyl-1,1-dioxo-6-phenyl-thiazinan-2-yl]methyl]phenyl]-N-(isoxazol-4-ylmethyl)ethanamine]	0.022
Cc1cc(C(=O)NC(C)c2cc(F)c(CN3[C@@H](C)CC[C@H](c4ccccc4)S3(=O)=O)cc2F)no1 (stereo in doubt) [Compound 51, N-[1-[2,5-difluoro-4-[[(3S,6R)-3-methyl-1,1-dioxo-6-phenyl-thiazinan-2-yl]methyl]phenyl]ethyl]-5-methyl-isoxazole-3-carboxamide]	0.007
CC(NC(=O)c1csnn1)c1cc(F)c(CN2[C@@H](C)CC[C@H](c3ccccc3)S2(=O)=O)cc1F (stereo in doubt) [Compound 79, N-[1-[2,5-difluoro-4-[[(3S,6R)-3-methyl-1,1-dioxo-6-phenyl-thiazinan-2-yl]methyl]phenyl]ethyl]thiadiazole-4-carboxamide]	0.003
C[C@H]1CC[C@H](c2ccccc2)S(=O)(=O)N1Cc1ccc(C2(C(=O)NC3(C#N)CC3)CCOCC2)cc1F (stereo in doubt) [Compound 36, N-(1-cyanocyclopropyl)-4-[3-fluoro-4-[[(3S,6R)-3-methyl-1,1-dioxo-6-phenyl-thiazinan-2-yl]methyl]phenyl]tetrahydropyran-4-carboxamide]	0.234
CC(NC(=O)c1cn(C)cn1)c1cc(F)c(CN2[C@@H](C)CC[C@H](c3ccccc3)S2(=O)=O)cc1F (stereo in doubt) [Compound 62, N-[1-[2,5-difluoro-4-[[(3S,6R)-3-methyl-1,1-dioxo-6-phenyl-thiazinan-2-yl]methyl]phenyl]ethyl]-1-methyl-imidazole-4-carboxamide]	0.389
C[C@H]1CC[C@H](c2ccccc2)S(=O)(=O)N1Cc1cc(F)c(C2(C(=O)N[C@H]3C[C@H](O)C3)CCOCC2)cc1F [Compound 37, 4-[2,5-difluoro-4-[[(3S,6R)-3-methyl-1,1-dioxo-6-phenyl-thiazinan-2-yl]methyl]phenyl]-N-(3-hydroxycyclobutyl) tetrahydropyran-4-carboxamide]	0.0476
C[C@H]1CC[C@H](c2ccccc2)S(=O)(=O)N1Cc1cc(F)c(C(C)(C)NCC(N)=O)cc1F [Compound 20, 2-[[1-[2,5-difluoro-4-[[(3S,6R)-3-methyl-1,1-dioxo-6-phenyl-thiazinan-2-yl]methyl]phenyl]-1-methyl-ethyl]amino]acetamide]	0.0042
C[C@H]1CC[C@H](c2ccccc2)S(=O)(=O)N1Cc1cc(F)c([C@@H](OCC2CC2)C(N)=O)cc1F [Compound 18, (2R)-2-(cyclopropylmethoxy)-2-[2,5-difluoro-4-[[(3S,6R)-3-methyl-1,1-dioxo-6-phenyl-thiazinan-2-yl]methyl]phenyl]acetamide]	0.0301
CC(NC(=O)c1ccn(C)n1)c1cc(F)c(CN2[C@@H](C)CC[C@H](c3ccccc3)S2(=O)=O)cc1F (stereo in doubt) [Compound 58, N-[1-[2,5-difluoro-4-[[(3S,6R)-3-methyl-1,1-dioxo-6-phenyl-thiazinan-2-yl]methyl]phenyl]ethyl]-1-methyl-pyrazole-3-carboxamide]	0.254
C[C@H]1CC[C@H](c2ccccc2)S(=O)(=O)N1Cc1cc(F)c(C2(NC(=O)C3CC3)COC2)cc1F (stereo in doubt) [Compound 46, N-[3-[2,5-difluoro-4-[[(3S,6R)-3-methyl-1,1-dioxo-6-phenyl-thiazinan-2-yl]methyl]phenyl]oxetan-3-yl]cyclopropanecarboxamide]	0.0331
C[C@H]1CC[C@H](c2ccccc2)S(=O)(=O)N1Cc1cc(F)c([C@@H](CC2COC2)C(N)=O)cc1F [Compound 5, (2R)-2-[2,5-difluoro-4-[[(3S,6R)-3-methyl-1,1-dioxo-6-phenyl-thiazinan-2-yl]methyl]phenyl]-3-(oxetan-3-yl)propanamide]	0.031
CNC(=O)COC1(c2cc(F)c(CN3[C@@H](C)CC[C@H](c4ccccc4)S3(=O)=O)cc2F)CC2(COC2)C1 [Compound 13, 2-[[6-[2,5-difluoro-4-[[(3S,6R)-3-methyl-1,1-dioxo-6-phenyl-thiazinan-2-yl]methyl]phenyl]-2-oxaspiro[3.3]heptan-6-yl]oxy]-N-methyl-acetamide]	0.0021
C[C@H]1CC[C@H](c2ccccc2)S(=O)(=O)N1Cc1cc(F)c([C@](C)(CO)C(N)=O)cc1F [Compound 11, (2R)-2-[2,5-difluoro-4-[[(3S,6R)-3-methyl-1,1-dioxo-6-phenyl-thiazinan-2-yl]methyl]phenyl]-3-hydroxy-2-methyl-propanamide]	0.0187
CC(NC(=O)c1cocn1)c1cc(F)c(CN2[C@@H](C)CC[C@H](c3ccccc3)S2(=O)=O)cc1F (stereo in doubt) [Compound 65, N-[1-[2,5-difluoro-4-[[(3S,6R)-3-methyl-1,1-dioxo-6-phenyl-thiazinan-2-yl]methyl]phenyl]ethyl]oxazole-4-carboxamide]	0.167
